Patent US20210393932A1, “DERMAL PATCHES AND GLASS SWABS FOR APPLICATION OF TOPICAL IMMUNOSENSITIZERS” (Squarex, LLC, priority 2020, published 2021)
Values joined by “and” are separate entries in the source; they are usually repeats but may differ in a detail not shown here. Equal values may be shown once.

Columns and labels:
[1] = Toxicity evaluation (body weight, food consumption, necropsy, histopathology) in Gottingen mini-pig; assay type: in vivo, Gottingen miniswine
Description: The purpose of this nonGLP study was to evaluate the effect of various concentrations of SADBE delivered via dermal patch, for dose site irritation and toxicity endpoints such as body weights, group food consumption, clinical observation, pre-termination clinical pathology, gross and histopathology.
(§1) A total of 6 Gottingen miniswine (3 female and 3 male) was used in this nonGLP study. Prior to dosing, the baseline body weights, group food consumption, and Draize scoring (see tables 1 and 2) for erythema and eschar formation and edema at the future dose site were recorded. A dermal patch (1 patch/animal) loaded with 20 microliters of 2, 6, or 18% SADBE drug solution was applied to animals, and left in place for ˜12 hours. Following the ˜12 hour dosing period, patch sites was assessed by Draize scoring as in Example 5, 5×/week for 21 days. […] After the 25 day assessment period, the animals were re-challenged and a second dosing and assessment phase performed for 30 days. At the end of the survival period, animals were humanely euthanized and a complete necropsy was performed. The test article vials used to prepare patches and mini-pig exposed patches were collected after application to determine SADBE content and SADBE degradation product squaric acid monobutyl ester (SAMBE) using HPLC at Squarex's Laboratory.
Dose site was explanted, fixed, and embedded. Dose sites were examined histologically and an evaluation of cell type presence and tissue response conducted.

mini pig skin = experiment: Cutaneous irritation (Draize, Primary Irritation Index) after SADBE dermal patch in Gottingen mini-pig; assay type: in vivo, Gottingen miniswine; details: for Primary Irritation Index (pII) / Primary Irritation Index (pII), transient peak: 0-8 scale; for Primary Irritation Index (pII), transient peak: after the second dose; for duration of moderate levels of irritation / time to return to non-irritating levels post-dermal-application: re-challenge; for duration of severe cutaneous irritation: re-challenge at naive site
Procedure: as §1
Cutaneous irritation at the test site was observed and scored each day of the study by the Draize Scale for both Erythema & Eschar and Edema. The scale for each is in Tables 9 and 10 in Example 5, each on a 0-4 scale. The cumulative Erythema & Eschar and Edema score was the Primary Irritation Index score, which would therefore be on a 0-8 scale.
The daily primary irritation index (pII) for each test article dose over the course of the study was calculated (FIG. 5). The pII is used to categorize the test article treatments as negligible to not irritating (0-0.9), slight (0.9-1.9), moderate (2-4.9) or severe (5-8) irritation potential.

[2] = Residual SADBE and SAMBE in patches after 12 hours on guinea pigs; assay type: in vivo, guinea pig
Procedure: Patches were removed from the pigs at the indicated times and immediately the reservoir portion of the patch was cut out and placed in a 50 ml tube with 10 ml of DMSO. The tubes of DMSO with patches were transported to the Squarex laboratory, shaken at 200 rpm for 1 hour or more, and then the DMSO from each tube was placed in an injection vial and analyzed for SADBE content by HPLC on a C18 column with the program SADBE3-50 ul. SADBE elutes in this program at about 24.0 minutes and absorbs at 255 nm, so the area of the 24.0 min peak at 255 nm was used to quantify SADBE. The SADBE degradation product squaric acid monobutyl ester (SAMBE) was also quantified by 255 nm area under the curve at the elution time of 12.7 minutes.

[3] = system: herpes labialis (cold sores or oral herpes); details: cited from earlier work
[4] = system: common warts and alopecia areata; details: solutions of 0.05% to 2.0% weight/volume, vehicle almost always acetone, applied repeatedly (Buckley et al., Lee et al.); cited from earlier work
[5] = system: herpes labialis outbreaks; experiment: Placebo-controlled Phase 1 clinical trial of SADBE in subjects with frequent herpes labialis outbreaks; assay type: in vivo, human
Procedure: Methods This exploratory, double-blind, randomized placebo-controlled study was conducted between November 2013 and September 2015 at Massachusetts General Hospital. Healthy adults, ages 18 to 69 years, who self-reported having 6 or more episodes of herpes labialis in the previous 12 months received a topical sensitization dose on the arm at the initial visit, and then received a topical treatment dose applied to a lesion during the first 2 herpes labialis episodes occurring at least 2 weeks after the sensitization dose. Participants were randomized 1:1:1 to receive dimethyl sulfoxide alone (placebo), 2.0% SADBE sensitization and 0.5% SADBE treatment doses, or 2.0% SADBE sensitization, 0.2% SADBE treatment doses. The study was approved by Partners Human Research Committee institutional review board, and all participants provided their written informed consent (clinicaltrials.gov identification No. NCT01971385). Results. Fifty-four patients were enrolled into the study; 43 patients had at least 1 form of contact (either in person or by phone) with research staff following the sensitizing dose and were included in the efficacy data analysis. The data analyzed involves 9 males and 34 females.
One planned primary end point was days to the next herpes labialis outbreak after the last treatment dose. […] Thus, we analyzed time to next outbreak after the sensitization dose. Data from patients who never experienced a first outbreak following sensitization were censored on the last available follow-up date and Kaplan-Meier time-to-event curves were estimated and graphed (FIG. 3). The median time to event for the placebo group was 40 days versus more than 122 days for the 2.0% SADBE group, which difference was highly significant (P=0.009).

[6] = any dose (2%, 6%, 18% SADBE patch)

With `CCCCOc1c(OCCCC)c(=O)c1=O` [SADBE, squaric acid dibutyl ester] the “histopathology of treated skin sites: inflammatory infiltrates in the dermis” value ([1]; 2% & 6% SADBE) was “multifocal rare to mild infiltrates of inflammatory cells”, the “histopathology of treated skin sites: inflammatory infiltrates in the dermis” value ([1]; 18% SADBE) was “multifocal mild to heavy infiltrates of inflammatory cells” and the “histopathology: necrosis and fatty infiltration” value ([1]; all SADBE treated sites) was “minimal multifocal necrosis and fatty infiltration were observed”. For the same compound, the “Cervical and Inguinal lymph node sections” value ([1]; all animals, all doses) was “within normal limits”, the gross necropsy ([1]; all doses) was “No abnormalities were noted” and the “histopathology: parakeratosis” value ([1]; all sections examined) was “mild to moderate parakeratosis”. The “effect on body weight” value [1, 6] was “no significant effect”, the “effect on food consumption” value [1, 6] was “no significant effect” and the “histopathology: neovascularization and fibrosis” value ([1]; any tissue sections examined) was “Neovascularization and fibrosis was not noted”. The “irritation category by Primary Irritation Index (pII)” value (mini pig skin; 2% SADBE, 20 microliters patch, ~12 hours, first dose) was “moderately irritating”, the “Primary Irritation Index (pII)” value (mini pig skin; 2% SADBE, after the first dose) was roughly 3.5 and the “Primary Irritation Index (pII), transient peak” value (mini pig skin; 2% SADBE) was 5. The “duration of moderate cutaneous irritation” value (mini pig skin; 2% SADBE, induction) was greater than 15 days, the “duration of moderate levels of irritation” value (“duration … of irritation” below) (mini pig skin; 2% SADBE) was roughly 17 days and the “time to return to non-irritating levels post-dermal-application” value (mini pig skin; 2% SADBE) was roughly 22 days. For the same compound, the “irritation category by Primary Irritation Index (pII)” value (mini pig skin; 2% SADBE, re-challenge (second dose)) was “moderately-severely irritating”, the “duration of severe cutaneous irritation” value (mini pig skin; 2% SADBE) was 1 to 2 days and the “irritation category by Primary Irritation Index (pII)” value (mini pig skin; 6% SADBE, 20 microliters patch, ~12 hours, first dose) was “moderately irritating”. For the same compound, the “Primary Irritation Index (pII)” value (mini pig skin; 6% SADBE, after the first dose) was 3.0-4.0, the “Primary Irritation Index (pII), transient peak” value (mini pig skin; 6% SADBE) was 5.5 and the “duration of moderate cutaneous irritation” value (mini pig skin; 6% SADBE, induction) was roughly 21 days. The “duration … of irritation” value (mini pig skin; 6% SADBE) was roughly 19 days, the “time to return to non-irritating levels post-dermal-application” value (mini pig skin; 6% SADBE) was roughly 22 days and the “irritation category by Primary Irritation Index (pII)” value (mini pig skin; 6% SADBE, re-challenge (second dose)) was “moderately-severely irritating”. The “duration of severe cutaneous irritation” value (mini pig skin; 6% SADBE) was 1 days, the “irritation category by Primary Irritation Index (pII)” value (mini pig skin; 18% SADBE, 20 microliters patch, ~12 hours, first dose) was “moderately-severely irritating” and the “Primary Irritation Index (pII)” value (mini pig skin; 18% SADBE, first dose) was roughly 5.0. The “duration of moderate-severe cutaneous irritation” value (mini pig skin; 18% SADBE, induction) was roughly 22 days, the “duration … of irritation” value (mini pig skin; 18% SADBE) was roughly 24 days and the “time to return to non-irritating levels post-dermal-application” value (mini pig skin; 18% SADBE) was roughly 26 days. The “irritation category by Primary Irritation Index (pII)” value (mini pig skin; 18% SADBE, re-challenge (second dose)) was “severely irritating”, the “duration of severe cutaneous irritation” value (mini pig skin; 18% SADBE) was roughly 5 days and the “Primary Irritation Index (pII)” value (mini pig skin; 18% SADBE, second dose) was roughly 6. The “SADBE as % of expected (remaining in patch)” value ([2]; 2% patches, range of 10 patches) was 0.0-1.3%, the “SADBE as % of expected (remaining in patch)” value ([2]; 6% patches, average of 10 patches) was 11% and 10.67% and the “SADBE as % of expected (remaining in patch)” value ([2]; 6% patches, range of 10 patches) was 2.7-22.7%. The “SADBE as % of expected (remaining in patch)” value ([2]; 18% patches, average of 10 patches) was 34% and 34.13%, the “SADBE as % of expected (remaining in patch)” value ([2]; 18% patches, range of 10 patches) was 23.0-46.5% and the “time for which a single dose to the arm prevents outbreaks” value ([3]; SADBE-DMSO solution (Palli et al., Chang et al.)) was no less than 3 months. The “number of cold sore outbreaks” value ([3]; single dose applied to the arm, for about four months (Palli et al., Chang et al.)) was “significantly decrease number of cold sore outbreaks”, the “treatment of common warts and alopecia areata” value [4] was “used successfully” and the “median time to next herpes labialis outbreak after the sensitization dose” value ([5]; 2.0% SADBE sensitization dose on arm, Kaplan-Meier, placebo 40 days, P=0.009) was “more than 122 days”. The “adverse event: itching and redness at the sensitization site” value ([5]; 2.0% SADBE, placebo 2 patients) was 13 patients, the “adverse event: autosensitization dermatitis” value ([5]; exposed to the SADBE sensitization dose for 24 hours) was 1 patient and the tolerability ([5]; overall, patients) was “well tolerated”. For the same compound, the “patients who did not experience another outbreak after sensitization” value ([5]; patients who received 2.0% SADBE for sensitization) was 16 of 28.
